Earlier results in patent US11304902B2, “Pharmaceutical compositions, preparation and uses thereof” (CURADIGM SAS, priority 2014, dated 2022).
Entries after “also recorded” stand apart in the source; their conditions may differ.

Tests used:
Conditions in all cases: human CYP enzyme
CYP1B1 = target: T1, CYP1B1 (Homo sapiens, UniProt Q16678)
T1 sequence (Q16678 1-543): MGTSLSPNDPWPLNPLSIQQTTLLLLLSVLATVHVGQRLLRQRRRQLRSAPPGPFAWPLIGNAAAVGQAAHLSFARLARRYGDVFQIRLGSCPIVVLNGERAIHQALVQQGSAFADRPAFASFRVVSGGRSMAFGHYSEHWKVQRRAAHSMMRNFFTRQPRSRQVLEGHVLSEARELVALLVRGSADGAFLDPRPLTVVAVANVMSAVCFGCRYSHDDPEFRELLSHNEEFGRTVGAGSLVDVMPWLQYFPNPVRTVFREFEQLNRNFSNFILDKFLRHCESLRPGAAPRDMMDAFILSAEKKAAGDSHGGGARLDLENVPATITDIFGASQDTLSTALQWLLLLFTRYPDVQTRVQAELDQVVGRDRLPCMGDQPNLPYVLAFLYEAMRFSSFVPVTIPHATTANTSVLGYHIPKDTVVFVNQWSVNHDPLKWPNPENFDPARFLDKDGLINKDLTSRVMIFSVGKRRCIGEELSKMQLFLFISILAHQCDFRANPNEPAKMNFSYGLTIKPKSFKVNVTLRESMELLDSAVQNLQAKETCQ

CYP4F8 = target: T2, CYP4F8 (Homo sapiens, UniProt P98187)
T2 sequence (P98187 1-520): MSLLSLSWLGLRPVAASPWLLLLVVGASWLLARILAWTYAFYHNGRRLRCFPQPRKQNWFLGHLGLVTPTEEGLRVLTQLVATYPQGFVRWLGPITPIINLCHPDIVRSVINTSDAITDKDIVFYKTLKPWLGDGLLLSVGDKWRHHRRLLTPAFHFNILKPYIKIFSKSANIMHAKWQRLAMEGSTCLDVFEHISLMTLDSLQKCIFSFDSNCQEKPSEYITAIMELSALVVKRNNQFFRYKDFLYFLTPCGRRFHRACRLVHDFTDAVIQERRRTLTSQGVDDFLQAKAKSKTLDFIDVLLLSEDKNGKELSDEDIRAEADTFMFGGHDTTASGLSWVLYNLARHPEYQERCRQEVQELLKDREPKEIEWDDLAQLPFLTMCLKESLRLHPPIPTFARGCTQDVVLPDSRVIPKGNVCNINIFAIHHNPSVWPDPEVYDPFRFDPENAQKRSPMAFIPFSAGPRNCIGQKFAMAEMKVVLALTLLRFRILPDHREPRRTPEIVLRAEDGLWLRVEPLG

CYP4B1 = CYP4B1 (Homo sapiens, UniProt P13584)
CYP2A6 = target: T3, CYP2A6 (Homo sapiens, UniProt P11509)
T3 sequence (P11509 1-494): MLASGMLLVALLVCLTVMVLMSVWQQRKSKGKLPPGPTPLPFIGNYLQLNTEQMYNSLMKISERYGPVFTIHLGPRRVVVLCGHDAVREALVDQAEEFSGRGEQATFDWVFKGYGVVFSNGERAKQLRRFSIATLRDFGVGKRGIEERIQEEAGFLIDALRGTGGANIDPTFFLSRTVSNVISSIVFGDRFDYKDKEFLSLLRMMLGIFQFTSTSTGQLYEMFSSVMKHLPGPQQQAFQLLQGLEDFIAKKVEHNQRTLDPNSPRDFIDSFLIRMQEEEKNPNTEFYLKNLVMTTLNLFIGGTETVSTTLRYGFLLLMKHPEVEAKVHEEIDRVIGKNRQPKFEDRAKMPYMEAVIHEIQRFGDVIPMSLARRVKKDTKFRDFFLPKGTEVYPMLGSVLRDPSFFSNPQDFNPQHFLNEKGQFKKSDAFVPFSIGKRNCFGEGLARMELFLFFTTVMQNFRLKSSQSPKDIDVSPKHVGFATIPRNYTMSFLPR

CYP2C19 = CYP2C19 (Homo sapiens, UniProt P33261)
CYP1A1 = target: T4, CYP1A1 (Homo sapiens, UniProt P04798)
T4 sequence (P04798 1-512): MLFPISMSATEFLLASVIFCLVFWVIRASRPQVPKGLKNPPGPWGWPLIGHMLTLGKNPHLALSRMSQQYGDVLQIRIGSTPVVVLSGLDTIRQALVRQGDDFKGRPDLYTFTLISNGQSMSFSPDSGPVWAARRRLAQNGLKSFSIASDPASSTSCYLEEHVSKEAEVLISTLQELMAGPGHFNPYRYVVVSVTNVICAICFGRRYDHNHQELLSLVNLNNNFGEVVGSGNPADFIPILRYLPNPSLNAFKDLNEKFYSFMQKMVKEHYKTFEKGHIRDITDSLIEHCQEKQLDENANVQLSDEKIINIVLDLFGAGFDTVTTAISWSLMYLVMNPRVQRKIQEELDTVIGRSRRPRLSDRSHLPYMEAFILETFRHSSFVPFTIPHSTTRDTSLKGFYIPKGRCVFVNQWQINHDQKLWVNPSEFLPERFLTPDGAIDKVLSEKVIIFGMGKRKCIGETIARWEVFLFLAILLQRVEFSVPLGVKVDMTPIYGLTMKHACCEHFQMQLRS

CYP2C9 = CYP2C9 (Homo sapiens, UniProt P11712)
Chain of CYP2C9 (P11712 whole entry): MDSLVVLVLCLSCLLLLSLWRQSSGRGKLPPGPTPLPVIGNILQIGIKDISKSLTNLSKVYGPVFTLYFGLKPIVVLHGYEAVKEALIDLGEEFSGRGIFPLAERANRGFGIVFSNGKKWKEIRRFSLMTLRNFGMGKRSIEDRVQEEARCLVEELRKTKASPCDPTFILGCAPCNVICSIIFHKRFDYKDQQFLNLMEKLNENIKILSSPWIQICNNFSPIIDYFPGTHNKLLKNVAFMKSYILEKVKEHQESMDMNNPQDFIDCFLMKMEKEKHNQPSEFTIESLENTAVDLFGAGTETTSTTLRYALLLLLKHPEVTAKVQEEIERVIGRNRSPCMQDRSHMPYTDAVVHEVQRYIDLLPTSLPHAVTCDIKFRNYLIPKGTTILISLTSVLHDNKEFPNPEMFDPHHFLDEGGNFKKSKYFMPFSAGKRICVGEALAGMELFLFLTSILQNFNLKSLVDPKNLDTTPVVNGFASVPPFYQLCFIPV

Chain of CYP4B1 (P13584 whole entry): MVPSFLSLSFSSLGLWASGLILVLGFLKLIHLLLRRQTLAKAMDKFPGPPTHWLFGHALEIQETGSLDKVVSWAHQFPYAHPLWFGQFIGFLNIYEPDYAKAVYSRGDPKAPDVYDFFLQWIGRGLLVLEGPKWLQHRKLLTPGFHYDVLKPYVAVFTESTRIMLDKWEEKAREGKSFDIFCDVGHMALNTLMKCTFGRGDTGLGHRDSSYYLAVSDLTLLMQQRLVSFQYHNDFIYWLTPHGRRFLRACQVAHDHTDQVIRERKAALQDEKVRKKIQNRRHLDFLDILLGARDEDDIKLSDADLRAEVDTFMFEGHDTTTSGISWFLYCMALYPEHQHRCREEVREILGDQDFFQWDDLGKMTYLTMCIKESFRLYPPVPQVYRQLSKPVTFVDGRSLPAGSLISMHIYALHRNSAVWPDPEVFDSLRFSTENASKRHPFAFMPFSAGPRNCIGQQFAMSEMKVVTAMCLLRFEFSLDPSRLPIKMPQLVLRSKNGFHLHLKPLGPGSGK
Chain of CYP2C19 (P33261 whole entry): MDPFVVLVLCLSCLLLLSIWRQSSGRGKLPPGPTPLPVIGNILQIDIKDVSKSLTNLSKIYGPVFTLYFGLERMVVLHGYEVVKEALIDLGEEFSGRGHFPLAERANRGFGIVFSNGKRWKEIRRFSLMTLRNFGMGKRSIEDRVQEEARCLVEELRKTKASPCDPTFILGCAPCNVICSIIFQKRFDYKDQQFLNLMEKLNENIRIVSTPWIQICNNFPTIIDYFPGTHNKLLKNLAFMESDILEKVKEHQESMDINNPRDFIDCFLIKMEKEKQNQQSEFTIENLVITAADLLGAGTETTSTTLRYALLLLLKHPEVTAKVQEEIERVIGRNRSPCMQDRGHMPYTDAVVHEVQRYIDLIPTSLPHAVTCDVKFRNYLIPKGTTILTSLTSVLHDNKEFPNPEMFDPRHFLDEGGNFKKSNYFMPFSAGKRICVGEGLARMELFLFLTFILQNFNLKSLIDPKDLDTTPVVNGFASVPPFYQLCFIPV

Compound: CCCCC/C=C\C/C=C\C/C=C\C/C=C\CCCC(=O)O [Arachidonic acid, arachidonic acid]
- role towards CYP1B1 (substrate / inhibitor / inducer) (CYP1B1): Inhibitor
- role towards CYP4F8 (substrate / inhibitor / inducer) (CYP4F8): Substrate
- role towards CYP4B1 (substrate / inhibitor / inducer) (CYP4B1): Substrate
- role towards CYP2A6 (substrate / inhibitor / inducer) (CYP2A6): Substrate
- role towards CYP2C19 (substrate / inhibitor / inducer) (CYP2C19): Substrate
- role towards CYP1A1 (substrate / inhibitor / inducer) (CYP1A1): Inhibitor
- role towards CYP2C9 (substrate / inhibitor / inducer) (CYP2C9): Inhibitor; also recorded: Substrate
